# Laboratory results: patent US20240091254A1, “WNT AGONISTS FOR PREVENTION OF CANCER” (ACADEMISH MEDISCH CENTRUM, priority 2021, published 2024)
# Key:
# [1] = tested on: Apc-/- mutant clones in crypts; test: Short term clonal dynamics of Notumpos/Apc-/- clones in Lgr5-CreErt2;Apcfl/fl mice; format: in vivo, mouse
# Description: Lgr5-EGFP-IRES-Cre^ERT2 Villin-Cre^ERT2, Rosa26mTmG, Apc^fl/fl and Kras^G12D mice have been described earlier^30-34. All in vivo experiments were approved by the animal experimentation committee at the Amsterdam UMC—location Academic Medical Center in Amsterdam under nationally registered licence number AVD1180020172125 and performed according to national guidelines. Mice were housed in a 12 hour light/12 hour dark cycle, with temperatures between 20-24° C. and 40-70% humidity. For short term assays, both male and female mice were used. For long term assays, only females were used to prevent the risk of preliminary dropout due to fighting male mice. All mice were between 6-12 weeks old at the start of the experiments. For all mouse experiments, sufficient sample sizes were determined based on previous studies with a similar study design^3,35. Experimental animals were randomly assigned to the control or lithium treated groups, clone sizes and adenoma counts were scored blindly. In vivo low-dose recombination was induced by intraperitoneal injection (i.p.) of 0.3 mg (for Rosa26^mTmG and Kras^G12D mice) or 2 mg (for Ape^−/− mice) tamoxifen (Sigma) dissolved in sunflower oil. […] Treatment with LiCl was initiated 7 days before recombination by i.p. injection of tamoxifen and was administered until the day they were sacrificed. For short term experiments to study stem cell dynamics, mice were sacrificed at day 4, 7, 10, 14, 21 days after intra peritoneal (i.p.) injection and intestines were removed and further processed for analyses. For long term adenoma formation experiments, mice were injected with 2 mg tamoxifen and sacrificed 60 days after i.p. injection. Mouse discomfort during tumour formation assays was closely monitored, and endpoints were determined as <15% weight loss within 2 days or a mouse grimace scale (MGS) score<3. […] After 60 days, intestines were removed and polyps were counted macroscopically.
# After the mice were sacrificed, intestines were removed fully and washed thoroughly with ice-cold PBS. The intestines were cut into pieces of 5 mm, opened longitudinally and fixed overnight in 4% paraformaldehyde (PFA) solution. To preserve tissue integrity the intestines were kept in 30% sucrose solution for another night before freezing. Crypt bottoms were sliced with a thickness of […] at a Cryostar™ NX70 cryostat and placed on glass slips. Fluorescent lineage tracing labels were visualized with a SP8X Confocal (Leica), slides were counterstained with Hoechst-33342. RNA-ISH stained coupes were counterstained with hematoxylin and scanned using the IntelliSite Ultra Fast 1.6 slide scanner (Philips). For all crypt analyses, clone sizes were quantified as proportions of the crypt circumference (in eights, 1:8-8:8).
# RNA in situ hybridisation (RNAscope) and Basescope was performed on fixed frozen intestinal tissue (mouse) and paraffine embedded tissue (mouse and human) according to manufacturer's protocol (ACD RNAscope® 2.5 HD—Brown and Red, and ACD BaseScope™ v2—Red). RNAscope was used for detection of mouse Notum (#428981), Wif1 (#412361), Dkk2 (#404841) or positive control Ppib (#313911) and human NOTUM (#430311) and positive control PPIB (#313901). BaseScope probe ApcE14-E16 (#703011) was used to detect recombined Apc alleles. RNAscope duplex was performed using the RNAscope Duplex Reagent Kit (#322430, ACD) with additional Lgr5 probe (#312171-C2). After RNAscope procedures tissues were counterstained for Hematoxylin or Hoechst-33342. RNAscope was quantified using QuPath software v0.2.2^39.
# The clone data was modelled using the models and methods developed in Vermeulen et al.^3. An R package implementing the model was used and is available at https://qithub.com/MorrisseyLab/CryptDriftR.
# WT organoids = test: Murine WT intestinal organoids incubated with conditioned medium or recombinant Wnt antagonists (expansion, clonogenicity); format: cell-based, mouse; settings: WT organoids, Apc-/- CM, 5 mM LiCl
# Description: Murine intestinal crypts were isolated from Lgr5-EGFP-IRES-Cre^ERT2, Lgr5-EGFP-IRES-Cre^ERT2;Ape/or Villin-Cre^ERT2;Apc^fl/fl mice as described by Sato et al.^35. In short, intestines were removed from the mouse and washed thoroughly with ice-cold PBS. Next, the intestine was opened longitudinally and the villi were gently scraped off by a glass cover slide. The intestine was cut into pieces of 5×5 mm and incubated in 2 mM EDTA solution for 30 min. at 4° C. After removal of the EDTA, the crypts were resuspended in ice-cold 1% FCS in PBS by vigorously shaking the tube and passing the supernatant through a 70 µm strainer. Isolated crypts were resuspended in Matrigel® (Corning) and seeded in pre-heated 24-well plates, supplemented with basal organoid medium consisting of advanced DMEM/F12 medium (Gibco) containing 100× N2 and 50× B27 supplements, 100× Glutamax, 5 mM HEPES, 1 mM N-acetyl-L-cysteine (Sigma), and 100× antibiotic/antimycotic (all Gibco). The basal organoid medium was freshly supplemented with the following growth factors: mouse EGF 50 ng/ml (TEBU-BIO), R-spondin (conditioned medium), Noggin (conditioned medium). The first two days after crypt isolation CHIR99021 (Axon Medchem) and ROCK inhibitor (Sigma) was added to the medium. Ctnnb1^S organoids expressing a constitutive active variant of β-catenin were generated as described by Adam et al.^36. For in vitro recombination of loxP flanked alleles, 1 μM 40H-Tamoxifen (Sigma) was added to the medium. Recombination of the Apc gene was validated by digital droplet PCR (Bio-Rad) using EvaGreen® Supermix (Bio-Rad). Lgr5-EGFP-IRES-Cre^ERT2 organoids, referred to as wild type (WT) organoids, were stably transduced with a red fluorescent mCherry construct (LeGO-C2, Addgene #27399). The in vitro recombined Lgr5-EGFP-IRES-Cre^ERT2;Apc^fl/fl, referred to as Apc^−/−, were stably transduced with a green fluorescent Venus construct (LeGO-V2, Addgene #27340). During competition assays, organoids were plated in equal numbers in 24-well plates and full wells were scanned over time by the EVOS FL Cell Imaging System (Thermo Scientific). Conditioned medium (CM) was taken from 2-3 day old WT or Apc^−/− organoid cultures and freshly supplemented with growth factors R-spondin, Noggin and mEGF. During the competition assays the medium (normal and conditioned) was replaced every other day to minimize effects of medium depletion. To assess the effect of medium depletion, CM was 10× concentrated using 10 kDa Amicon® centrifugal filters (Millipore) and added to fresh ENR medium as 1:10. […] Recombinant proteins NOTUM (2 μg/mL, R&D, 9150-NO-050), WIF1 (5 μg/mL, R&D, 135-WF-050) and DKK2 (1 μg/mL, R&D, 2435-DKB-010) were freshly added to the culture medium, medium was refreshed every other day.
compound,measurement,setting,value
"[Cl-].[Li+] [LiCl, lithium chloride]",Reduction of Lgr5 expression by Notumpos/Apc-/- clones within the same and neighbouring crypts,"[1]; Lgr5-CreErt2;Apcfl/fl mice, oral LiCl",prevented this
same,Number of Notumpos clones (crypts),"[1]; LiCl treated mice, day 21",reduced number of Notum^pos clones
same,Probability of clonal fixation in a crypt (Pfix),"[1]; LiCl treated mice, model",markedly reduced probability of clonal fixation
same,"Number of functional ISCs (WT stem cells, NWT) in crypts","[1]; LiCl treated mice, adapted drift model, 4.7 untreated with Apc-/- clones, 5.6 fully WT crypts",6.5 (95% Cl: 6.2-6.8)
same,Probability of replacement (PR) of WT ISCs by Apc-/- ISCs,"[1]; LiCl treated mice, inferred by stem cell drift model, untreated 0.65, neutral 0.5",0.34 (95% Cl: 0.31-0.37)
same,Rate of Notumpos/Apc-/- clone expansion and fixation,"[1]; LiCl versus non-treated mice, up to day 21",significantly reduced
same,Resistance to Apc-/- CM induced reduction in proliferation and clonogenicity,WT organoids,resistant to the Apc^−/− CM induced reduction in proliferation and clonogenicity
